From patent US12319672B2, “Alpha-D-galactopyranoside derivatives” (Idorsia Pharmaceuticals Ltd, priority 2019, dated 2025)

Assays:
human Gal-1 (hGal-1) = assay: Competitive binding assay: binding of biotinylated hGal-1 to microplate-adsorbed asialofetuin (ASF); details: Activities on hGal-1; mean values of several measurements
Protocol: (§1) Evaluation of Compound Inhibitory Activity (IC50)
(§2) The inhibitory activity of compounds is determined in competitive binding assays. This spectrophotometric assay measures the binding of biotinylated human Gal-3 (hGal-3) or human Gal-1 (hGal-1), respectively, to a microplate-adsorbed glycoprotein, asialofetuin (ASF) (Proc Natl Acad Sci USA. 2013 Mar. 26; 110(13):5052-7.). Alternatively, and preferably, a human Gal-1 version in which all six cysteines are substituted by serines may be used.
(§3) Briefly, compounds are serially diluted in DMSO (working dilutions). ASF-coated 384 well plates are supplemented with 22.8 μL/well of biotinylated hGal-3 or hGal-1 in assay buffer (i.e. 300-1000 ng/mL biotinylated hGal-3 or hGal-1) to which 1.2 μL of compound working dilutions are added and mixed.
(§4) Plates are incubated for 3 hours at 4° C., then washed with cold assay buffer (3×50 uL), incubated for 1 hour with 25 μL/well of a streptavidin-peroxidase solution (diluted in assay buffer to 80 ng/mL) at 4° C., followed by further washing steps with assay buffer (3×50 uL). Finally, 25 μL/well of ABTS substrate is added.
(§5) The calculated IC50 values may fluctuate depending on the daily assay performance. Fluctuations of this kind are known to those skilled in the art. IC50 values from several measurements are given as mean values.

human Gal-3 (hGal-3) = human Gal-3 (hGal-3) (Homo sapiens (Human), UniProt P17931); assay: Competitive binding assay: binding of biotinylated hGal-3 to microplate-adsorbed asialofetuin (ASF); details: Activity on hGal-3; mean values of several measurements
Protocol: as §1, §2, §3, §4, §5

Chain of human Gal-3 (hGal-3) (P17931 whole entry): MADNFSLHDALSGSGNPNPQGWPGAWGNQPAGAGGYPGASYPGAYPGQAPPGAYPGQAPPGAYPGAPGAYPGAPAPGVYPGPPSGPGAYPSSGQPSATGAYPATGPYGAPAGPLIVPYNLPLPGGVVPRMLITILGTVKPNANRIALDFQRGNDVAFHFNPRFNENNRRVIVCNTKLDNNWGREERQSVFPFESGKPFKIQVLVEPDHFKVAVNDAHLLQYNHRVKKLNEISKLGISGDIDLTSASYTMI
Chain of human Gal-1 (hGal-1) (P09382 2-135 limits assumed): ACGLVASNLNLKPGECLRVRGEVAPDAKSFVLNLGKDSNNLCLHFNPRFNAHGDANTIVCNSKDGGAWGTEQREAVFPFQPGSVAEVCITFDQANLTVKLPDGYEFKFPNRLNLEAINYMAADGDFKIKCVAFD

IC50 (human Gal-1 (hGal-1)) | IC50 (human Gal-3 (hGal-3)) | SMILES
3990 nM | 230 nM | CC(=O)O[C@@H]1[C@@H](n2cc(-c3cc(F)c(F)c(F)c3)nn2)[C@@H](O)[C@@H](CO)O[C@@H]1CC1=NOC(C2CCN(C(C)=O)CC2)C1 (mixture of isomers) [Example 3.23, (2R,3R,4S,5R,6R)-2-(((RS)-5-(1-acetylpiperidin-4-yl)-4,5-dihydroisoxazol-3-yl)methyl)-5-hydroxy-6-(hydroxymethyl)-4-(4-(3,4,5-trifluorophenyl)-1H-1,2,3-triazol-1-yl)tetrahydro-2H-pyran-3-yl acetate]
8140 nM | 1160 nM | CO[C@@H]1[C@@H](n2cc(-c3cc(F)c(F)c(F)c3)nn2)[C@@H](O)[C@@H](CO)O[C@@H]1CC1=NOC(C2CCNCC2)C1 (mixture of isomers) [Example 3.36, (2R,3R,4S,5R,6R)-2-(hydroxymethyl)-5-methoxy-6-(((RS)-5-(piperidin-4-yl)-4,5-dihydroisoxazol-3-yl)methyl)-4-(4-(3,4,5-trifluorophenyl)-1H-1,2,3-triazol-1-yl)tetrahydro-2H-pyran-3-ol]
1210 nM | 310 nM | CO[C@@H]1[C@@H](n2cc(-c3cc(F)c(F)c(F)c3)nn2)[C@@H](O)[C@@H](CO)O[C@@H]1CC1=NOC(C2CCN(C(C)=O)CC2)C1 (mixture of isomers) [Example 3.40, 1-(4-((RS)-3-(((2R,3R,4S,5R,6R)-5-hydroxy-6-(hydroxymethyl)-3-methoxy-4-(4-(3,4,5-trifluorophenyl)-1H-1,2,3-triazol-1-yl)tetrahydro-2H-pyran-2-yl)methyl)-4,5-dihydroisoxazol-5-yl)piperidin-1-yl)ethan-1-one]
2510 nM | 190 nM | CCC(C)C(=O)N1CCC(c2cc(C[C@H]3O[C@H](CO)[C@H](O)[C@H](n4cc(-c5cc(F)c(F)c(F)c5)nn4)[C@H]3OC)no2)CC1 (mixture of isomers) [Example 3.53, (RS)-1-(4-(3-(((2R,3R,4S,5R,6R)-5-hydroxy-6-(hydroxymethyl)-3-methoxy-4-(4-(3,4,5-trifluorophenyl)-1H-1,2,3-triazol-1-yl)tetrahydro-2H-pyran-2-yl)methyl)isoxazol-5-yl)piperidin-1-yl)-2-methylbutan-1-one]
2990 nM | 90 nM | CO[C@@H]1[C@@H](n2cc(-c3cc(F)c(F)c(F)c3)nn2)[C@@H](O)[C@@H](CO)O[C@@H]1Cc1cc(C2CCN([S+]([O-])C(C)(C)C)CC2)on1 (mixture of isomers) [Example 3.55, (2R,3R,4S,5R,6R)-6-((5-(1-((RS)-tert-butylsulfinyl)piperidin-4-yl)isoxazol-3-yl)methyl)-2-(hydroxymethyl)-5-methoxy-4-(4-(3,4,5-trifluorophenyl)-1H-1,2,3-triazol-1-yl)tetrahydro-2H-pyran-3-ol]
610 nM | 20 nM | CO[C@@H]1[C@@H](n2cc(-c3cc(F)c(F)c(F)c3)nn2)[C@@H](O)[C@@H](CO)O[C@@H]1Cc1cc(C2CCN(S(=N)(=O)C(C)(C)C)CC2)on1 (mixture of isomers) [Example 3.56, (RS)-(2R,3R,4S,5R,6R)-2-(hydroxymethyl)-5-methoxy-6-((5-(1-(2-methylpropan-2-ylsulfonimidoyl)piperidin-4-yl)isoxazol-3-yl)methyl)-4-(4-(3,4,5-trifluorophenyl)-1H-1,2,3-triazol-1-yl)tetrahydro-2H-pyran-3-ol]
1400 nM | 97 nM | CN=S(=O)(C(C)C)N1CCC(c2cc(C[C@H]3O[C@H](CO)[C@H](O)[C@H](n4cc(-c5cc(F)c(F)c(F)c5)nn4)[C@H]3OC)no2)CC1 (mixture of isomers) [Example 3.57, (RS)-(2R,3R,4S,5R,6R)-2-(hydroxymethyl)-5-methoxy-6-((5-(1-(N-methylpropan-2-ylsulfonimidoyl)piperidin-4-yl)isoxazol-3-yl)methyl)-4-(4-(3,4,5-trifluorophenyl)-1H-1,2,3-triazol-1-yl)tetrahydro-2H-pyran-3-ol]
5280 nM | 1570 nM | COc1ccc(N2CC(C[C@H]3O[C@H](CO)[C@H](O)[C@H](n4cc(-c5cc(F)c(F)c(F)c5)nn4)[C@H]3OC)OC2=O)cc1 (mixture of isomers) [Example 5.01, (RS)-5-(((2R,3R,4S,5R,6R)-5-hydroxy-6-(hydroxymethyl)-3-methoxy-4-(4-(3,4,5-trifluorophenyl)-1H-1,2,3-triazol-1-yl)tetrahydro-2H-pyran-2-yl)methyl)-3-(4-methoxyphenyl)oxazolidin-2-one]
3550 nM | 1560 nM | CO[C@@H]1[C@@H](n2cc(-c3cc(F)c(F)c(F)c3)nn2)[C@@H](O)[C@@H](CO)O[C@@H]1CC1CN(c2ccc(OC(F)F)cc2)C(=O)O1 (mixture of isomers) [Example 5.02, (RS)-3-(4-(difluoromethoxy)phenyl)-5-(((2R,3R,4S,5R,6R)-5-hydroxy-6-(hydroxymethyl)-3-methoxy-4-(4-(3,4,5-trifluorophenyl)-1H-1,2,3-triazol-1-yl)tetrahydro-2H-pyran-2-yl)methyl)oxazolidin-2-one]
650 nM | 120 nM | CO[C@@H]1[C@@H](n2cc(-c3cc(F)c(F)c(F)c3)nn2)[C@@H](O)[C@@H](CO)O[C@@H]1CC1CN(C2CCN(C(C)=O)CC2)C(=O)O1 (mixture of isomers) [Example 5.03, (RS)-3-(1-acetylpiperidin-4-yl)-5-(((2R,3R,4S,5R,6R)-5-hydroxy-6-(hydroxymethyl)-3-methoxy-4-(4-(3,4,5-trifluorophenyl)-1H-1,2,3-triazol-1-yl)tetrahydro-2H-pyran-2-yl)methyl)oxazolidin-2-one]
790 nM | 180 nM | CO[C@@H]1[C@@H](n2cc(-c3cc(F)c(F)c(F)c3)nn2)[C@@H](O)[C@@H](CO)O[C@@H]1CC1CN(C2CCN(S(C)(=O)=O)CC2)C(=O)O1 (mixture of isomers) [Example 5.04, (RS)-5-(((2R,3R,4S,5R,6R)-5-hydroxy-6-(hydroxymethyl)-3-methoxy-4-(4-(3,4,5-trifluorophenyl)-1H-1,2,3-triazol-1-yl)tetrahydro-2H-pyran-2-yl)methyl)-3-(1-(methylsulfonyl)piperidin-4-yl)oxazolidin-2-one]
460 nM | 83 nM | CO[C@@H]1[C@@H](n2cc(-c3cc(F)c(F)c(F)c3)nn2)[C@@H](O)[C@@H](CO)O[C@@H]1CC1CN(C2CCN(C(=O)OC(C)(C)C)CC2)C(=O)O1 (mixture of isomers) [Example 5.09, tert-butyl 4-((RS)-5-(((2R,3R,4S,5R,6R)-5-hydroxy-6-(hydroxymethyl)-3-methoxy-4-(4-(3,4,5-trifluorophenyl)-1H-1,2,3-triazol-1-yl)tetrahydro-2H-pyran-2-yl)methyl)-2-oxooxazolidin-3-yl)piperidine-1-carboxylate]
280 nM | 190 nM | CO[C@@H]1[C@@H](n2cc(-c3cc(F)c(F)c(F)c3)nn2)[C@@H](O)[C@@H](CO)O[C@@H]1CC1CN(C2CCN(C(=O)C(C)C)CC2)C(=O)O1 (mixture of isomers) [Example 5.10, (RS)-5-(((2R,3R,4S,5R,6R)-5-hydroxy-6-(hydroxymethyl)-3-methoxy-4-(4-(3,4,5-trifluorophenyl)-1H-1,2,3-triazol-1-yl)tetrahydro-2H-pyran-2-yl)methyl)-3-(1-isobutyrylpiperidin-4-yl)oxazolidin-2-one]
